Measured values taken from patent US20260022118A1, “HETEROCYCLIC COMPOUNDS AS NRAS INHIBITORS” (Board of Regents, The University of Texas System, priority 2023, published 2026).

Tests used:
NRAS G12D C118S = NRAS G12D C118S (Homo sapiens (Human), UniProt P01111, C118S/G12D); experiment: NRas G12D Surface Plasmon Resonance (SPR) binding assay; conditions: Avi-tagged biotinylated NRAS G12D C118S on streptavidin chip, 25° C., 1:1 kinetic or steady-state fit
Description: NRas G12D Surface Plasmon Resonance (SPR) Binding Assay
This Example illustrates that exemplary compounds and salts thereof described herein bind to NRAS G12D as measured by surface plasmon resonance (SPR).
Two liters of 1.03× running buffer (1.03×HBS-P+pH 7.4, containing 0.0103 M HEPES, 0.1545 M NaCl, 0.0515% v/v Surfactant P20 (Cytiva®, BR100671); 5.15 mM MgCl2 (Invitrogen, AM9530G); 0.515 mM TCEP, pH 8.0 (GoldBio®, TCEP25)) was prepared and filter sterilized using a 0.22 μm filter. A 1-L volumetric flask was filled partway with this buffer. A 30-mL volumetric flask was used to measure 30 mL of 100% DMSO (Sigma Aldrich®, 41639-100ML) which was added to the 1-L flask. The solution in the 1-L flask was brought up to 1 L with 1.03× buffer, resulting in a 1.0× assay running buffer containing 1.0×HBS-P+, 5 mM MgCl2, […], and 3% DMSO. Remaining 1.03× buffer was used for preparation of samples and immobilization running buffer.
Samples were prepared in a standard conical-bottomed 384-well microplate by adding 2 μL 10 mM DMSO cpd stock to each well, followed by 8 μL DMSO. A control compound was selected based off of its relatively “fast” kinetics that could be fitted by 1:1 kinetic fitting, as well as by steady-state fitting. Control wells for periodic injection to assess protein activity throughout the assay were also assembled, by diluting 10 mM compound 1:30 in DMSO, then adding 20 μL to the appropriate wells, such that the final concentration of compound would be 10 μM, and the final concentration of DMSO would be 3%. A Biomek™ FXP Laboratory Automation Workstation was used to stamp 20 μL DMSO into all sample wells—minus the control wells—according to the plate map, and then serially dilute 1:3 by mixing and aspirating 10 μL, delivering into the 20 μL of DMSO in the next well, resulting in 10-point serial dilution curves. A Biotek™ Multiflo EL406 Washer Dispenser was used to deliver 80 μL of 1.03× buffer to the compound plate. The plate was mixed 10× by FX, then a final dilution was performed by stamping 18 μL from the compound plate into a 384-well deep-well plate that had also been previously filled with 102 μL 1.03× buffer via the Multiflo. The solution in the deep-well plate was mixed 10× by FX, then sealed with a 384-well microplate foil from Cytiva® (Cytiva® BR100577) and placed on an orbital shaker for 30 minutes at 1000 RPM to ensure complete mixing of the DMSO solution in the buffer. A solvent correction curve was also prepared by making a 4% DMSO solution in 1.03× buffer and diluting in 1.03× buffer such that there were eight solutions of decreasing DMSO concentrations resulting in a high DMSO concentration of 4% and a low concentration of 2% DMSO.
Immobilization running buffer was prepared in a 200-mL volume by diluting 1.03× running buffer prepared above to 1.0×. A Cytiva® Streptavidin chip (Cytiva®, 29104992) was docked into a Biacore™ S200 instrument, and the instrument was then primed three times into the immobilization running buffer. A protein stock of Avi-tagged NRAS G12D C118S was prepared in-house and biotinylated using the Bulk BirA: BirA biotin-protein ligase bulk reaction kit from Avidity (Avidity®, Bulk BirA). Upon completion of the biotinylation reaction, Amicon® ultra 0.5-mL Centrifugal Filters with a MWCO of 3 k Da (Millipore® UFC500396) were used to reduce the free biotin concentration below 0.1 μM in the protein sample over the course of eight desalting cycles, according to the manufacturer's protocol. Resulting protein concentration was not measured directly as an accurate protein concentration is not required for immobilizing protein on the chip surface; however, a theoretical yield of ≤1.5 mg/mL was estimated based off of retained volumes during the desalting process. Reagents for immobilization were prepared as instructed in the Biacore™ 5200 Control Software Immobilization Wizard, including solutions of 1 M NaCl in 50 mM NaOH, and 1 M NaCl in 50 mM NaOH and 50% isopropyl alcohol. […]

[1] = tested on: THP-1 cells expressing G12D (NRAS G12D); experiment: Inhibition of NRAS G12D-mediated phosphorylation of ERK (AlphaLISA p-ERK1/2) in THP-1 cells; assay type: cell-based; conditions: Homo sapiens, THP-1, 2 h, 2 hours incubation, HBSS with 0% or 10% FBS, p-ERK1/2 (Thr202/Tyr204) AlphaLISA, read-out: pERK THP-1 IC50
Method in brief: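 THP-1 cells expressing NRAS G12D, seeded in HBSS with 0% or 10% FBS, were exposed to test compound (1% DMSO final) for 2 h. p-ERK1/2 (Thr202/Tyr204) read by AlphaLISA SureFire Ultra. IC50 from curves normalized to no-inhibitor (100%) and 1 μM trametinib (0%) controls.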

Chain of NRAS G12D C118S (P01111 whole entry G12D/C118S): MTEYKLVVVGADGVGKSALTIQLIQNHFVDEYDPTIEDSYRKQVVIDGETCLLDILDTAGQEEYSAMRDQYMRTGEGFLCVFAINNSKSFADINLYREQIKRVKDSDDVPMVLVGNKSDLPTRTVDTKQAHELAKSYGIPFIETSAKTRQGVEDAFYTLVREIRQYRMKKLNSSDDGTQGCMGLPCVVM

Question: For C#Cc1c(F)ccc2cc(O)cc(-c3ncc4c(c3F)n(C)c(=O)n4C3[C@H]4CNC[C@@H]34)c12 (stereo partly drawn) [Example 45, 3-[(1R,5S)-3-azabicyclo[3.1.0]hexan-6-yl]-6-(8-ethynyl-7-fluoro-3-hydroxy-1-naphthyl)-7-fluoro-1-methyl-imidazo[4,5-c]pyridin-2-one], which Kd (NRAS G12D C118S) is on record?
Answer: 9940 nM

Question: And the IC50 [1]?
Answer: > 10000 nM

Question: With C#Cc1c(F)ccc2cc(O)cc(-c3ncc4c([C@H]5[C@@H]6CNC[C@@H]65)nn(C5C[C@@H]5C)c4c3F)c12 (stereo partly drawn) [Example 46, 4-(3-((1R,5S,6r)-3-azabicyclo[3.1.0]hexan-6-yl)-7-fluoro-1-((1S,2S)-2-methylcyclopropyl)-1H-pyrazolo[4,3-c]pyridin-6-yl)-5-ethynyl-6-fluoronaphthalen-2-ol] as the compound, how does the Kd (NRAS G12D C118S) read?
Answer: 60.7 nM

Question: And the IC50 [1]?
Answer: 1940 nM

Question: C#Cc1c(F)ccc2cc(O)cc(-c3ncc4c(C5C6CNCC65)nn(C5CC5(F)F)c4c3F)c12 (centres unmarked) [Example 49, 4-[3-(3-azabicyclo[3.1.0]hexan-6-yl)-1-(2,2-difluorocyclopropyl)-7-fluoro-pyrazolo[4,3-c]pyridin-6-yl]-5-ethynyl-6-fluoro-naphthalen-2-ol] was tested. Which Kd (NRAS G12D C118S) did it give?
Answer: 81.5 nM

Question: What about the IC50 [1] of the same compound?
Answer: 438 nM

Question: Which results are given for C#Cc1c(F)ccc2cc(O)cc(-c3ncc4c(N5C[C@@H]6C[C@H](O)[C@H](C5)N6)nn(C)c4c3F)c12 [Example 57, (1S,5S,6S)-3-(6-(8-ethynyl-7-fluoro-3-hydroxynaphthalen-1-yl)-7-fluoro-1-methyl-1H-pyrazolo[4,3-c]pyridin-3-yl)-3,8-diazabicyclo[3.2.1]octan-6-ol]?
Answer: Kd (NRAS G12D C118S): 737 nM; IC50 [1]: 17300 nM

Question: What does the source list for C#Cc1c(F)ccc2cc(O)cc(-c3ncc4c([C@H]5[C@@H]6CNC[C@@H]65)c(C#N)n(C)c4c3F)c12 [Example 58, 3-((1R,5S,6s)-3-azabicyclo[3.1.0]hexan-6-yl)-6-(8-ethynyl-7-fluoro-3-hydroxynaphthalen-1-yl)-7-fluoro-1-methyl-1H-pyrrolo[3,2-c]pyridine-2-carbonitrile]?
Answer: Kd (NRAS G12D C118S): 300 nM; IC50 [1]: 4800 nM

Question: What does the source list for C#CCn1nc([C@H]2[C@@H]3CNC[C@@H]32)c2cnc(-c3cc(O)cc4ccc(F)c(C#C)c34)c(F)c21 [Example 59, 4-(3-((1R,5S,6r)-3-azabicyclo[3.1.0]hexan-6-yl)-7-fluoro-1-(prop-2-yn-1-yl)-1H-pyrazolo[4,3-c]pyridin-6-yl)-5-ethynyl-6-fluoronaphthalen-2-ol]?
Answer: Kd (NRAS G12D C118S): 1110 nM; IC50 [1]: 3470 nM

Question: What does the source list for C#Cc1c(F)ccc2cc(O)cc(-c3ncc4c(N5C[C@H]6CC[C@@H]5CN6)nn(C)c4c3F)c12 [Example 60, 4-(3-((1R,4R)-2,5-diazabicyclo[2.2.2]octan-2-yl)-7-fluoro-1-methyl-1H-pyrazolo[4,3-c]pyridin-6-yl)-5-ethynyl-6-fluoronaphthalen-2-ol]?
Answer: Kd (NRAS G12D C118S): 2550 nM; IC50 [1]: 23000 nM

Question: For C#Cc1c(F)ccc2cc(O)cc(-c3nc(OC)c4c([C@H]5[C@@H]6CNC[C@@H]65)nn(C5CC5)c4c3F)c12 [Example 61, 4-(3-((1R,5S,6r)-3-azabicyclo[3.1.0]hexan-6-yl)-1-cyclopropyl-7-fluoro-4-methoxy-1H-pyrazolo[4,3-c]pyridin-6-yl)-5-ethynyl-6-fluoronaphthalen-2-ol], which Kd (NRAS G12D C118S) is on record?
Answer: 15.8 nM

Question: And the IC50 [1]?
Answer: 477 nM

Question: Which results are given for C#Cc1c(F)ccc2cc(O)cc(-c3nc(OC(C)C)c4c([C@H]5[C@@H]6CNC[C@@H]65)nn(C5CC5)c4c3F)c12 [Example 62, 4-(3-((1R,5S,6r)-3-azabicyclo[3.1.0]hexan-6-yl)-1-cyclopropyl-7-fluoro-4-isopropoxy-1H-pyrazolo[4,3-c]pyridin-6-yl)-5-ethynyl-6-fluoronaphthalen-2-ol]?
Answer: Kd (NRAS G12D C118S): 18.8 nM; IC50 [1]: 115 nM

Question: Which Kd (NRAS G12D C118S) does the source give for C#Cc1c(F)ccc2cc(O)cc(-c3nc(OCC)c4c([C@H]5[C@@H]6CNC[C@@H]65)nn(C5CC5)c4c3F)c12 [Example 63, 4-(3-((1R,5S,6r)-3-azabicyclo[3.1.0]hexan-6-yl)-1-cyclopropyl-4-ethoxy-7-fluoro-1H-pyrazolo[4,3-c]pyridin-6-yl)-5-ethynyl-6-fluoronaphthalen-2-ol] here?
Answer: 8.29 nM

Question: What about the IC50 [1] of the same compound?
Answer: 185 nM

Question: How did the Kd (NRAS G12D C118S) turn out when C#Cc1c(F)ccc2cc(O)cc(-c3nc(OC4CCC4)c4c([C@H]5[C@@H]6CNC[C@@H]65)nn(C5CC5)c4c3F)c12 [Example 64, 4-(3-((1R,5S,6r)-3-azabicyclo[3.1.0]hexan-6-yl)-4-cyclobutoxy-1-cyclopropyl-7-fluoro-1H-pyrazolo[4,3-c]pyridin-6-yl)-5-ethynyl-6-fluoronaphthalen-2-ol] was run?
Answer: 24.3 nM

Question: What about the IC50 [1] of the same compound?
Answer: 480 nM

Question: Which results are given for C#Cc1c(F)ccc2cc(O)cc(-c3nc(OC4CCCC4)c4c([C@H]5[C@@H]6CNC[C@@H]65)nn(C5CC5)c4c3F)c12 [Example 65, 4-(3-((1R,5S,6r)-3-azabicyclo[3.1.0]hexan-6-yl)-4-(cyclopentyloxy)-1-cyclopropyl-7-fluoro-1H-pyrazolo[4,3-c]pyridin-6-yl)-5-ethynyl-6-fluoronaphthalen-2-ol]?
Answer: Kd (NRAS G12D C118S): 125 nM; IC50 [1]: 1060 nM

Question: What does the source list for C#Cc1c(F)ccc2cc(O)cc(-c3nc(OC(F)F)c4c([C@H]5[C@@H]6CNC[C@@H]65)nn(C5CC5)c4c3F)c12 [Example 66, 4-(3-((1R,5S,6r)-3-azabicyclo[3.1.0]hexan-6-yl)-1-cyclopropyl-4-(difluoromethoxy)-7-fluoro-1H-pyrazolo[4,3-c]pyridin-6-yl)-5-ethynyl-6-fluoronaphthalen-2-ol]?
Answer: Kd (NRAS G12D C118S): 114 nM; IC50 [1]: 1190 nM

Question: With C#Cc1c(F)ccc2cc(O)cc(-c3nc(OCC(F)(F)F)c4c([C@H]5[C@@H]6CNC[C@@H]65)nn(C5CC5)c4c3F)c12 [Example 67, 4-(3-((1R,5S,6r)-3-azabicyclo[3.1.0]hexan-6-yl)-1-cyclopropyl-7-fluoro-4-(2,2,2-trifluoroethoxy)-1H-pyrazolo[4,3-c]pyridin-6-yl)-5-ethynyl-6-fluoronaphthalen-2-ol] as the compound, how does the Kd (NRAS G12D C118S) read?
Answer: 114 nM

Question: What about the IC50 [1] of the same compound?
Answer: 763 nM

Question: With C#Cc1c(F)ccc2cc(O)cc(-c3nc(OC4CC(F)(F)C4)c4c([C@H]5[C@@H]6CNC[C@@H]65)nn(C5CC5)c4c3F)c12 [Example 68, 4-(3-((1R,5S,6r)-3-azabicyclo[3.1.0]hexan-6-yl)-1-cyclopropyl-4-(3,3-difluorocyclobutoxy)-7-fluoro-1H-pyrazolo[4,3-c]pyridin-6-yl)-5-ethynyl-6-fluoronaphthalen-2-ol] as the compound, how does the Kd (NRAS G12D C118S) read?
Answer: 566 nM

Question: What about the IC50 [1] of the same compound?
Answer: 2130 nM

Question: What does the source list for C#Cc1c(F)ccc2cc(O)cc(-c3nc(OC4CNC4)c4c([C@H]5[C@@H]6CNC[C@@H]65)nn(C5CC5)c4c3F)c12 [Example 69, 4-(4-(azetidin-3-yloxy)-3-((1R,5S,6r)-3-azabicyclo[3.1.0]hexan-6-yl)-1-cyclopropyl-7-fluoro-1H-pyrazolo[4,3-c]pyridin-6-yl)-5-ethynyl-6-fluoronaphthalen-2-ol]?
Answer: Kd (NRAS G12D C118S): 1790 nM; IC50 [1]: > 10000 nM
